For data set [1], the target named is T1, Recombinant human ADAMTS-SI (Homo sapiens, UniProt Q9P2N4).
T1 construct: made in house
T1 sequence (Q9P2N4 288-1629 isoform Q9P2N4-1 limits assumed): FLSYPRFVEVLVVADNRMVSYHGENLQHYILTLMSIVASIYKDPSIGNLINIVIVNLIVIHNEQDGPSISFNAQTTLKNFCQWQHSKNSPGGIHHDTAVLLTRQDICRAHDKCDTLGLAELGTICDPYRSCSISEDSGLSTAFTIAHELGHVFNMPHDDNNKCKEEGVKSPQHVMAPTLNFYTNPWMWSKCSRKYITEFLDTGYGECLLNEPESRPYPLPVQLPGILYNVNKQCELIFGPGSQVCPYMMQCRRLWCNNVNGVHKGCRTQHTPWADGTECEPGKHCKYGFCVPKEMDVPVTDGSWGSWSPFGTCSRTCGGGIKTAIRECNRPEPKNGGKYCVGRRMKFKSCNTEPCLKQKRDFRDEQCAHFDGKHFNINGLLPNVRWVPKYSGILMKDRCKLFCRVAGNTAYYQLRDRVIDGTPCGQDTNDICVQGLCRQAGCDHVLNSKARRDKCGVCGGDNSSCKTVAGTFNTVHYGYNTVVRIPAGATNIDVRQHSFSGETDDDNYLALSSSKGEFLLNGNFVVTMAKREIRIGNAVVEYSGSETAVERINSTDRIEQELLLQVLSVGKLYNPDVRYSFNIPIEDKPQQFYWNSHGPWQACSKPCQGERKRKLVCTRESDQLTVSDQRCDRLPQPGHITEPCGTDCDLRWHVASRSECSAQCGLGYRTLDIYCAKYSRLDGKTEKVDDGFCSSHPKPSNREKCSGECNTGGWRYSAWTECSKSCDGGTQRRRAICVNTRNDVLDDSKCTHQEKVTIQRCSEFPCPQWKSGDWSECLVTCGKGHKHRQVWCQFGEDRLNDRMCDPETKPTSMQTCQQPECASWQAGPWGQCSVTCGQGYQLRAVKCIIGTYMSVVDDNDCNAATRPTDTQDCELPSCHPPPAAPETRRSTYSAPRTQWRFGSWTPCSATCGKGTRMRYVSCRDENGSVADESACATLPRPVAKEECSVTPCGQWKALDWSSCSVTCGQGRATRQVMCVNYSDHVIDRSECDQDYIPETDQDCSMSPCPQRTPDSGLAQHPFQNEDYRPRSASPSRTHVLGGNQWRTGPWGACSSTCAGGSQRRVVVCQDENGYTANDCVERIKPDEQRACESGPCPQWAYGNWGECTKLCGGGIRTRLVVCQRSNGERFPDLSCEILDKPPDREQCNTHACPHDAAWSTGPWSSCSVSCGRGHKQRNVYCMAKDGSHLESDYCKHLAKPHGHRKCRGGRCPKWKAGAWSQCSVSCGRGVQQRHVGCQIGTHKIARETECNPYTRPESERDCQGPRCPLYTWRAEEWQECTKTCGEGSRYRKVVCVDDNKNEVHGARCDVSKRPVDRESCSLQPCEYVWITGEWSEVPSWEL
Put plainly: Western blot (anti-NITEGE neoepitope) of aggrecanase substrate cleavage by ADAMTS-SI ± compound I. It counts as biochemical. Conditions: 1 μM compound I, 1 μM substrate, 18 hours at 37° C., FIG. 8. As for the experimental part: (§1) Recombinant human ADAMTS-SI (20 μl) and recombinant human ADAMTS-4 (MD Tortorella, Science, 284:1664) (20 μl) were incubated with 1 μM of aggrecanase substrate (aggrecan protein containing the interglobular domain (IGD)). The substrate is cleaved at the relevant aggrecanase site by aggrecanases such as ADAMTS-4. […] The aggrecanase substrate has been used to assess the activity of various aggrecanases, such as ADAMTS-4, and their inhibitors, such as compound I, shown below, and described in EP 1081137, published Mar. 7, 2001: [drawing 1]
(§2) Incubations were carried out in 20 μl TSC buffer (50 mM Tris, pH 7.5 100 mM NaCl, 10 mM CaCl2) with protease inhibitor cocktail (“Complete”, EDTA free from Roche: catalog number 1873580)±1 μM compound I, for 18 hours at 37° C. The reactions were stopped by the addition of EDTA to 10 mM final concentration. The reaction mixtures were prepared for SDS-PAGE by the addition of 40 μl 2× sample buffer (Novex) containing 0.5 M DTT and then separated on 4-20% Tris glycine gels (Novex). […]
(§3) Treatment of the aggrecan protein with aggrecanases results in the formation of a characteristic cleavage site in the IGD. […] The crude rabbit antiserum was affinity purified against the corresponding neoepitope sequence and absorbed against a read-through peptide to ensure specificity for the neoepitope sequence. […]
On the technique in general: A western blot detects proteins with antibodies after separation by electrophoresis.

Data set [2] has as its target T2, recombinant human ADAMTS-4 (Homo sapiens, UniProt O75173).
T2 sequence (O75173 213-837): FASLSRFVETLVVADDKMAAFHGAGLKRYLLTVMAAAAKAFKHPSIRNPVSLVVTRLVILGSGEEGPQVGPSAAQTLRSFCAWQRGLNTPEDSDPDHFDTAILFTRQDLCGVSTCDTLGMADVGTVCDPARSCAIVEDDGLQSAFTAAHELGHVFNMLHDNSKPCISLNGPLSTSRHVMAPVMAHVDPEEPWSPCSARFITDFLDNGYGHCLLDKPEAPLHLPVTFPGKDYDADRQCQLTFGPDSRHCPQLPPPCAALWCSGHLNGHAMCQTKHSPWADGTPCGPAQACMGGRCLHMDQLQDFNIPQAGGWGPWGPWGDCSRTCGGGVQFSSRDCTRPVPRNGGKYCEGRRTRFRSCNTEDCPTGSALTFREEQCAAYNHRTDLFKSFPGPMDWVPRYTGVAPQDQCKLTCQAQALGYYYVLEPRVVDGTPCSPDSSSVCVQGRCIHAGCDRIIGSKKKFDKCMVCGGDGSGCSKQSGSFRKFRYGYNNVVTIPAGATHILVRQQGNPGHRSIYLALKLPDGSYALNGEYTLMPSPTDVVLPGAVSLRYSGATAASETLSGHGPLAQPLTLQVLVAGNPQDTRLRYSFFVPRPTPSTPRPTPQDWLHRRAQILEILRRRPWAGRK
Put plainly: Western blot (anti-NITEGE neoepitope) of aggrecanase substrate cleavage by ADAMTS-4 ± compound I. The conditions noted are these: 1 μM compound I, 1 μM substrate, 18 hours at 37° C., FIG. 8. In kind it is biochemical. As to the method: as §1, §2, §3

In data set [3] the test system is IL-1 induced aggrecan degradation in human osteoarthritic cartilage explants. The conditions noted are these: cited from earlier work.
In data set [4] the target is aggrecanase activity secreted by human osteoarthritic cartilage. The conditions noted are these: cited from earlier work.
For data set [5], the system named is aggrecan degradation induced by intraarticular injection of IL-1. The conditions noted are these: hamsters, intraarticular injection of IL-1, 30 mg/kg p.o.; cited from earlier work.
Data set [6] has as its target aggrecanase substrate (aggrecan protein containing the interglobular domain (IGD)), uncleaved.
Data set [7] concerns aggrecanase substrate (aggrecan protein containing the interglobular domain (IGD)). Put plainly: Cleavage of aggrecanase substrate by recombinant enzymes (anti-NITEGE Western blot). It counts as biochemical. The conditions noted are these: 20 μl enzyme, 1 μM substrate, 18 hours at 37° C., FIG. 8. As for the experimental part:
as §1, §2, §3

The term IC50 denotes the concentration that inhibits the measured activity by half. As for `C[C@@]1(O)CCCN(S(=O)(=O)c2ccc(OCc3ccc(F)cc3Cl)cc2)[C@H]1C(=O)NO` [compound I], the “inhibition of ADAMTS-SI aggrecanase activity (cleavage of aggrecanase substrate)” value in data set [1] was “blocked”. Further, the “inhibition of ADAMTS-4 aggrecanase activity (cleavage of aggrecanase substrate)” value in data set [2] was “blocked”. Besides, the 50% inhibitory concentration (IC50) in data set [3] is 8 nM; in data set [4] it was 4.1 nM. Further, the “inhibition of aggrecan degradation” value in data set [5] is reported as 93 % inhibition.

B1: recombinant human ADAMTS-4 (protein)
chain: FASLSRFVETLVVADDKMAAFHGAGLKRYLLTVMAAAAKAFKHPSIRNPVSLVVTRLVILGSGEEGPQVGPSAAQTLRSFCAWQRGLNTPEDSDPDHFDTAILFTRQDLCGVSTCDTLGMADVGTVCDPARSCAIVEDDGLQSAFTAAHELGHVFNMLHDNSKPCISLNGPLSTSRHVMAPVMAHVDPEEPWSPCSARFITDFLDNGYGHCLLDKPEAPLHLPVTFPGKDYDADRQCQLTFGPDSRHCPQLPPPCAALWCSGHLNGHAMCQTKHSPWADGTPCGPAQACMGGRCLHMDQLQDFNIPQAGGWGPWGPWGDCSRTCGGGVQFSSRDCTRPVPRNGGKYCEGRRTRFRSCNTEDCPTGSALTFREEQCAAYNHRTDLFKSFPGPMDWVPRYTGVAPQDQCKLTCQAQALGYYYVLEPRVVDGTPCSPDSSSVCVQGRCIHAGCDRIIGSKKKFDKCMVCGGDGSGCSKQSGSFRKFRYGYNNVVTIPAGATHILVRQQGNPGHRSIYLALKLPDGSYALNGEYTLMPSPTDVVLPGAVSLRYSGATAASETLSGHGPLAQPLTLQVLVAGNPQDTRLRYSFFVPRPTPSTPRPTPQDWLHRRAQILEILRRRPWAGRK
In the case of B1, the “cleavage of the aggrecanase substrate at the aggrecanase site (Western blot with anti-NITEGE neoepitope antibody)” value in data set [6] is “treatment of the substrate with both ADAMTS-4 and ADAMTS-SI resulted in cleavage at the previously characterized aggrecanase cleavage site”. Further, the “cleavage of aggrecanase substrate at aggrecanase site (NITEGE neoepitope)” value in data set [7] is reported as “resulted in cleavage at the previously characterized aggrecanase cleavage site”.

B2: Recombinant human ADAMTS-SI (protein)
chain: FLSYPRFVEVLVVADNRMVSYHGENLQHYILTLMSIVASIYKDPSIGNLINIVIVNLIVIHNEQDGPSISFNAQTTLKNFCQWQHSKNSPGGIHHDTAVLLTRQDICRAHDKCDTLGLAELGTICDPYRSCSISEDSGLSTAFTIAHELGHVFNMPHDDNNKCKEEGVKSPQHVMAPTLNFYTNPWMWSKCSRKYITEFLDTGYGECLLNEPESRPYPLPVQLPGILYNVNKQCELIFGPGSQVCPYMMQCRRLWCNNVNGVHKGCRTQHTPWADGTECEPGKHCKYGFCVPKEMDVPVTDGSWGSWSPFGTCSRTCGGGIKTAIRECNRPEPKNGGKYCVGRRMKFKSCNTEPCLKQKRDFRDEQCAHFDGKHFNINGLLPNVRWVPKYSGILMKDRCKLFCRVAGNTAYYQLRDRVIDGTPCGQDTNDICVQGLCRQAGCDHVLNSKARRDKCGVCGGDNSSCKTVAGTFNTVHYGYNTVVRIPAGATNIDVRQHSFSGETDDDNYLALSSSKGEFLLNGNFVVTMAKREIRIGNAVVEYSGSETAVERINSTDRIEQELLLQVLSVGKLYNPDVRYSFNIPIEDKPQQFYWNSHGPWQACSKPCQGERKRKLVCTRESDQLTVSDQRCDRLPQPGHITEPCGTDCDLRWHVASRSECSAQCGLGYRTLDIYCAKYSRLDGKTEKVDDGFCSSHPKPSNREKCSGECNTGGWRYSAWTECSKSCDGGTQRRRAICVNTRNDVLDDSKCTHQEKVTIQRCSEFPCPQWKSGDWSECLVTCGKGHKHRQVWCQFGEDRLNDRMCDPETKPTSMQTCQQPECASWQAGPWGQCSVTCGQGYQLRAVKCIIGTYMSVVDDNDCNAATRPTDTQDCELPSCHPPPAAPETRRSTYSAPRTQWRFGSWTPCSATCGKGTRMRYVSCRDENGSVADESACATLPRPVAKEECSVTPCGQWKALDWSSCSVTCGQGRATRQVMCVNYSDHVIDRSECDQDYIPETDQDCSMSPCPQRTPDSGLAQHPFQNEDYRPRSASPSRTHVLGGNQWRTGPWGACSSTCAGGSQRRVVVCQDENGYTANDCVERIKPDEQRACESGPCPQWAYGNWGECTKLCGGGIRTRLVVCQRSNGERFPDLSCEILDKPPDREQCNTHACPHDAAWSTGPWSSCSVSCGRGHKQRNVYCMAKDGSHLESDYCKHLAKPHGHRKCRGGRCPKWKAGAWSQCSVSCGRGVQQRHVGCQIGTHKIARETECNPYTRPESERDCQGPRCPLYTWRAEEWQECTKTCGEGSRYRKVVCVDDNKNEVHGARCDVSKRPVDRESCSLQPCEYVWITGEWSEVPSWEL
As for B2, the “cleavage of the aggrecanase substrate at the aggrecanase site (Western blot with anti-NITEGE neoepitope antibody)” value in data set [6] was “treatment of the substrate with both ADAMTS-4 and ADAMTS-SI resulted in cleavage at the previously characterized aggrecanase cleavage site”.

These data come from patent publication US20020090373A1, “ADAMTS polypeptides, nucleic acids encoding them, and uses thereof” (priority 2000, published 2002).
